ChEMBL document CHEMBL5143638, “Natural aloe emodin-hybridized sulfonamide aminophosphates as novel potential membrane-perturbing and DNA-intercalating agents against Enterococcus faecalis” (Bioorg Med Chem Lett, 2022)
In brackets after ≈: the same amount, converted by molar mass.

Legend:
Assay type in all cases: functional
Klebsiella pneumoniae = experiment: Antibacterial activity against Klebsiella pneumoniae assessed as inhibition of bacterial growth measured after 24 hrs by CLSI based broth microdilution method
Enterococcus faecalis = experiment: Antibacterial activity against Enterococcus faecalis assessed as inhibition of bacterial growth measured after 24 hrs by CLSI based broth microdilution method
Pseudomonas aeruginosa [1] = experiment: Antibacterial activity against Pseudomonas aeruginosa assessed as inhibition of bacterial growth measured after 24 hrs by CLSI based broth microdilution method
Escherichia coli [2] = experiment: Antibacterial activity against Escherichia coli assessed as inhibition of bacterial growth measured after 24 hrs by CLSI based broth microdilution method
Staphylococcus aureus [3] = experiment: Antibacterial activity against methicillin-resistant Staphylococcus aureus N315 assessed as inhibition of bacterial growth measured after 24 hrs by CLSI based broth microdilution method
Escherichia coli [4] = experiment: Antibacterial activity against Escherichia coli ATCC 25922 assessed as inhibition of bacterial growth measured after 24 hrs by CLSI based broth microdilution method
Staphylococcus aureus [5] = experiment: Antibacterial activity against Staphylococcus aureus assessed as inhibition of bacterial growth measured after 24 hrs by CLSI based broth microdilution method
Pseudomonas aeruginosa [6] = experiment: Antibacterial activity against Pseudomonas aeruginosa ATCC 27853 assessed as inhibition of bacterial growth measured after 24 hrs by CLSI based broth microdilution method
Staphylococcus aureus [7] = experiment: Antibacterial activity against Staphylococcus aureus ATCC 25923 assessed as inhibition of bacterial growth measured after 24 hrs by CLSI based broth microdilution method
Acinetobacter baumannii = experiment: Antibacterial activity against Acinetobacter baumannii assessed as inhibition of bacterial growth measured after 24 hrs by CLSI based broth microdilution method

## CCCCOP(=O)(OCCCC)C(Nc1ccc(S(=O)(=O)Nc2cc(C)on2)cc1)c1cc(O)c2c(c1)C(=O)c1cccc(O)c1C2=O (stereo not given)
Klebsiella pneumoniae
  MIC: 256 µg/mL (≈ 367 µM)
Enterococcus faecalis
  MIC: 256 µg/mL (≈ 367 µM)
Pseudomonas aeruginosa [1]
  MIC: 64 µg/mL (≈ 91.7 µM)
Escherichia coli [2]
  MIC: 128 µg/mL (≈ 183 µM)
Staphylococcus aureus [3]
  MIC: 16 µg/mL (≈ 22.9 µM)
Escherichia coli [4]
  MIC: 64 µg/mL (≈ 91.7 µM)
Staphylococcus aureus [5]
  MIC: 128 µg/mL (≈ 183 µM)
Pseudomonas aeruginosa [6]
  MIC: 64 µg/mL (≈ 91.7 µM)
Staphylococcus aureus [7]
  MIC: 128 µg/mL (≈ 183 µM)
Acinetobacter baumannii
  MIC: 64 µg/mL (≈ 91.7 µM)

## CC(C)OP(=O)(OC(C)C)C(Nc1ccc(S(=O)(=O)Nc2nccs2)cc1)c1cc(O)c2c(c1)C(=O)c1cccc(O)c1C2=O (stereo not given)
Klebsiella pneumoniae
  MIC: 256 µg/mL (≈ 381 µM)
Enterococcus faecalis
  MIC: 256 µg/mL (≈ 381 µM)
Pseudomonas aeruginosa [1]
  MIC: 256 µg/mL (≈ 381 µM)
Escherichia coli [2]
  MIC: 256 µg/mL (≈ 381 µM)
Staphylococcus aureus [3]
  MIC: 256 µg/mL (≈ 381 µM)
Escherichia coli [4]
  MIC: 128 µg/mL (≈ 191 µM)
Staphylococcus aureus [5]
  MIC: 256 µg/mL (≈ 381 µM)
Pseudomonas aeruginosa [6]
  MIC: 128 µg/mL (≈ 191 µM)
Staphylococcus aureus [7]
  MIC: 32 µg/mL (≈ 47.6 µM)
Acinetobacter baumannii
  MIC: 256 µg/mL (≈ 381 µM)

## Cc1noc(NS(=O)(=O)c2ccc(NC(c3cc(O)c4c(c3)C(=O)c3cccc(O)c3C4=O)P(=O)(Oc3ccccc3)Oc3ccccc3)cc2)c1C (stereo not given)
Klebsiella pneumoniae
  MIC: 128 µg/mL (≈ 170 µM)
Enterococcus faecalis
  MIC: 64 µg/mL (≈ 85.1 µM)
Pseudomonas aeruginosa [1]
  MIC: 32 µg/mL (≈ 42.6 µM)
Escherichia coli [2]
  MIC: 64 µg/mL (≈ 85.1 µM)
Staphylococcus aureus [3]
  MIC: 32 µg/mL (≈ 42.6 µM)
Escherichia coli [4]
  MIC: 64 µg/mL (≈ 85.1 µM)
Staphylococcus aureus [5]
  MIC: 16 µg/mL (≈ 21.3 µM)
Pseudomonas aeruginosa [6]
  MIC: 64 µg/mL (≈ 85.1 µM)
Staphylococcus aureus [7]
  MIC: 16 µg/mL (≈ 21.3 µM)
Acinetobacter baumannii
  MIC: 128 µg/mL (≈ 170 µM)

## Nc1ccc(S(N)(=O)=O)cc1 [SULFANILAMIDE]
Klebsiella pneumoniae
  MIC: 8 µg/mL (≈ 46.5 µM)
Enterococcus faecalis
  MIC: 128 µg/mL (≈ 743 µM)
Pseudomonas aeruginosa [1]
  MIC: 4 µg/mL (≈ 23.2 µM)
Escherichia coli [2]
  MIC: 64 µg/mL (≈ 372 µM)
Staphylococcus aureus [3]
  MIC: 256 µg/mL (≈ 1490 µM)
Escherichia coli [4]
  MIC: 4 µg/mL (≈ 23.2 µM)
Staphylococcus aureus [5]
  MIC: 128 µg/mL (≈ 743 µM)
Pseudomonas aeruginosa [6]
  MIC: 2 µg/mL (≈ 11.6 µM)
Staphylococcus aureus [7]
  MIC: 256 µg/mL (≈ 1490 µM)
Acinetobacter baumannii
  MIC: 4 µg/mL (≈ 23.2 µM)

## Cc1noc(NS(=O)(=O)c2ccc(NC(c3cc(O)c4c(c3)C(=O)c3cccc(O)c3C4=O)P(=O)(OC(C)C)OC(C)C)cc2)c1C (stereo not given)
Klebsiella pneumoniae
  MIC: 2 µg/mL (≈ 2.93 µM)
Enterococcus faecalis
  MIC: 64 µg/mL (≈ 93.6 µM)
Pseudomonas aeruginosa [1]
  MIC: 2 µg/mL (≈ 2.93 µM)
Escherichia coli [2]
  MIC: 64 µg/mL (≈ 93.6 µM)
Staphylococcus aureus [3]
  MIC: 0.25 µg/mL (≈ 0.366 µM)
Escherichia coli [4]
  MIC: 0.5 µg/mL (≈ 0.731 µM)
Staphylococcus aureus [5]
  MIC: 2 µg/mL (≈ 2.93 µM)
Pseudomonas aeruginosa [6]
  MIC: 256 µg/mL (≈ 374 µM)
Staphylococcus aureus [7]
  MIC: 2 µg/mL (≈ 2.93 µM)
Acinetobacter baumannii
  MIC: 2 µg/mL (≈ 2.93 µM)

## O=C1c2cccc(O)c2C(=O)c2c(O)cc(CO)cc21 [ALOE-EMODIN]
Klebsiella pneumoniae
  MIC: 64 µg/mL (≈ 237 µM)
Enterococcus faecalis
  MIC: 32 µg/mL (≈ 118 µM)
Pseudomonas aeruginosa [1]
  MIC: 16 µg/mL (≈ 59.2 µM)
Escherichia coli [2]
  MIC: 8 µg/mL (≈ 29.6 µM)
Staphylococcus aureus [3]
  MIC: 16 µg/mL (≈ 59.2 µM)
Escherichia coli [4]
  MIC: 4 µg/mL (≈ 14.8 µM)
Staphylococcus aureus [5]
  MIC: 64 µg/mL (≈ 237 µM)
Pseudomonas aeruginosa [6]
  MIC: 4 µg/mL (≈ 14.8 µM)
Staphylococcus aureus [7]
  MIC: 8 µg/mL (≈ 29.6 µM)
Acinetobacter baumannii
  MIC: 8 µg/mL (≈ 29.6 µM)

## Cc1cc(NS(=O)(=O)c2ccc(N)cc2)no1 [SULFAMETHOXAZOLE]
Klebsiella pneumoniae
  MIC: 8 µg/mL (≈ 31.6 µM)
Enterococcus faecalis
  MIC: 16 µg/mL (≈ 63.2 µM)
Pseudomonas aeruginosa [1]
  MIC: 4 µg/mL (≈ 15.8 µM)
Escherichia coli [2]
  MIC: 64 µg/mL (≈ 253 µM)
Staphylococcus aureus [3]
  MIC: 4 µg/mL (≈ 15.8 µM)
Escherichia coli [4]
  MIC: 4 µg/mL (≈ 15.8 µM)
Staphylococcus aureus [5]
  MIC: 8 µg/mL (≈ 31.6 µM)
Pseudomonas aeruginosa [6]
  MIC: 2 µg/mL (≈ 7.9 µM)
Staphylococcus aureus [7]
  MIC: 32 µg/mL (≈ 126 µM)
Acinetobacter baumannii
  MIC: 4 µg/mL (≈ 15.8 µM)

## CCCCOP(=O)(OCCCC)C(Nc1ccc(S(N)(=O)=O)cc1)c1cc(O)c2c(c1)C(=O)c1cccc(O)c1C2=O (stereo not given)
Klebsiella pneumoniae
  MIC: 256 µg/mL (≈ 415 µM)
Enterococcus faecalis
  MIC: 128 µg/mL (≈ 208 µM)
Pseudomonas aeruginosa [1]
  MIC: 256 µg/mL (≈ 415 µM)
Escherichia coli [2]
  MIC: 256 µg/mL (≈ 415 µM)
Staphylococcus aureus [3]
  MIC: 64 µg/mL (≈ 104 µM)
Escherichia coli [4]
  MIC: 256 µg/mL (≈ 415 µM)
Staphylococcus aureus [5]
  MIC: 256 µg/mL (≈ 415 µM)
Pseudomonas aeruginosa [6]
  MIC: 256 µg/mL (≈ 415 µM)
Staphylococcus aureus [7]
  MIC: 256 µg/mL (≈ 415 µM)
Acinetobacter baumannii
  MIC: 256 µg/mL (≈ 415 µM)

## Nc1ccc(S(=O)(=O)Nc2ncccn2)cc1 [SULFADIAZINE]
Klebsiella pneumoniae
  MIC: 256 µg/mL (≈ 1020 µM)
Enterococcus faecalis
  MIC: 16 µg/mL (≈ 63.9 µM)
Pseudomonas aeruginosa [1]
  MIC: 8 µg/mL (≈ 32 µM)
Escherichia coli [2]
  MIC: 64 µg/mL (≈ 256 µM)
Staphylococcus aureus [3]
  MIC: 64 µg/mL (≈ 256 µM)
Escherichia coli [4]
  MIC: 32 µg/mL (≈ 128 µM)
Staphylococcus aureus [5]
  MIC: 64 µg/mL (≈ 256 µM)
Pseudomonas aeruginosa [6]
  MIC: 64 µg/mL (≈ 256 µM)
Staphylococcus aureus [7]
  MIC: 16 µg/mL (≈ 63.9 µM)
Acinetobacter baumannii
  MIC: 32 µg/mL (≈ 128 µM)

## CCOP(=O)(OCC)C(Nc1ccc(S(=O)(=O)Nc2nccs2)cc1)c1cc(O)c2c(c1)C(=O)c1cccc(O)c1C2=O (stereo not given)
Klebsiella pneumoniae
  MIC: 256 µg/mL (≈ 398 µM)
Enterococcus faecalis
  MIC: 0.5 µg/mL (≈ 0.777 µM)
Pseudomonas aeruginosa [1]
  MIC: 256 µg/mL (≈ 398 µM)
Escherichia coli [2]
  MIC: 256 µg/mL (≈ 398 µM)
Staphylococcus aureus [3]
  MIC: 256 µg/mL (≈ 398 µM)
Escherichia coli [4]
  MIC: 256 µg/mL (≈ 398 µM)
Staphylococcus aureus [5]
  MIC: 16 µg/mL (≈ 24.9 µM)
Pseudomonas aeruginosa [6]
  MIC: 128 µg/mL (≈ 199 µM)
Staphylococcus aureus [7]
  MIC: 256 µg/mL (≈ 398 µM)
Acinetobacter baumannii
  MIC: 64 µg/mL (≈ 99.4 µM)

## Cc1cc(NS(=O)(=O)c2ccc(NC(c3cc(O)c4c(c3)C(=O)c3cccc(O)c3C4=O)P(=O)(OC(C)C)OC(C)C)cc2)no1 (stereo not given)
Klebsiella pneumoniae
  MIC: 256 µg/mL (≈ 382 µM)
Enterococcus faecalis
  MIC: 32 µg/mL (≈ 47.8 µM)
Pseudomonas aeruginosa [1]
  MIC: 32 µg/mL (≈ 47.8 µM)
Escherichia coli [2]
  MIC: 64 µg/mL (≈ 95.6 µM)
Staphylococcus aureus [3]
  MIC: 128 µg/mL (≈ 191 µM)
Escherichia coli [4]
  MIC: 64 µg/mL (≈ 95.6 µM)
Staphylococcus aureus [5]
  MIC: 128 µg/mL (≈ 191 µM)
Pseudomonas aeruginosa [6]
  MIC: 8 µg/mL (≈ 11.9 µM)
Staphylococcus aureus [7]
  MIC: 256 µg/mL (≈ 382 µM)
Acinetobacter baumannii
  MIC: 0.5 µg/mL (≈ 0.747 µM)

## COP(=O)(OC)C(Nc1ccc(S(=O)(=O)Nc2onc(C)c2C)cc1)c1cc(O)c2c(c1)C(=O)c1cccc(O)c1C2=O (stereo not given)
Klebsiella pneumoniae
  MIC: 32 µg/mL (≈ 51 µM)
Enterococcus faecalis
  MIC: 64 µg/mL (≈ 102 µM)
Pseudomonas aeruginosa [1]
  MIC: 8 µg/mL (≈ 12.7 µM)
Escherichia coli [2]
  MIC: 128 µg/mL (≈ 204 µM)
Staphylococcus aureus [3]
  MIC: 2 µg/mL (≈ 3.19 µM)
Escherichia coli [4]
  MIC: 0.5 µg/mL (≈ 0.797 µM)
Staphylococcus aureus [5]
  MIC: 2 µg/mL (≈ 3.19 µM)
Pseudomonas aeruginosa [6]
  MIC: 256 µg/mL (≈ 408 µM)
Staphylococcus aureus [7]
  MIC: 8 µg/mL (≈ 12.7 µM)
Acinetobacter baumannii
  MIC: 4 µg/mL (≈ 6.37 µM)
